According to patent US11857535B2, “Methods of treating mutant lymphomas” (Kymera Therapeutics, Inc., priority 2020, dated 2024):

Key:
[1] = tested on: OCI-LY10 tumor xenographs; experiment: OCI-Ly10 xenograph tumor study (tumor volume, TGI, responses); assay type: in vivo, mouse; design: key to TGI (D14): TGI % = (1−T/C)×100; conditions: for TGI (28D): TGI=(1-T/C)100
Experimental: Cell Culture: The OCI-LY10 tumor cells were maintained as suspension in RPMI1640 medium supplemented with 10% fetal bovine serum, 100 U/mL penicillin and 100 μg/mL streptomycin at 37° C. in an atmosphere of 5% CO2 in air. The tumor cells were routinely subcultured twice weekly by trypsin-EDTA treatment. The cells growing in an exponential growth phase were harvested and counted for tumor inoculation.
Animals: C.B. 17 SCID, female, 6-8 weeks, weighing approximately 16-18 g were used. Animals were housed and maintained according to IACUC protocols.
Tumor Inoculation: Each mouse was inoculated subcutaneously at the right flank with OCI-LY10 tumor cells (10×10^6) in 0.2 mL of PBS with matrigel for tumor development. The treatments were started when the tumor sizes reached approximately 150-450 mm^3 for the studies.
(§1) Assignment to Groups: Before commencement of treatment, all animals were weighed and the tumor volumes were measured. Since the tumor volume can affect the compound PK/PD, mice are assigned into groups using an Excel-based randomization procedure performing stratified randomization based upon their tumor volumes.
Observation: After tumor inoculation, the animals were checked daily for morbidity and mortality. During routine monitoring, the animals were checked for any effects of tumor growth and treatments on behavior such as mobility, food and water consumption, body weight gain/loss, eye/hair matting and any other abnormalities. Mortality and observed clinical signs were recorded for individual animals in detail.
Data Collection: Tumor volumes were measured in two dimensions using a caliper, and the volumes were expressed in mm^3 using the formula: ″V=(L×W×W)/2, where V is tumor volume, L is tumor length (the longest tumor dimension) and W is tumor width (the longest tumor dimension perpendicular to L).
TGI (tumor growth inhibition)=(1−T/C)100; PR (partial response)≥50% tumor shrinkage; CR (complete response)>95% tumor shrinkage from starting volume

[2] = tested on: OCI-LY10 human diffuse large B-cell lymphoma model; experiment: Combination xenograph studies in OCI-LY10 model; assay type: in vivo, mouse
Experimental: Study Purpose: The objective was to evaluate the efficacy of Compound A combinations in the OCI-LY10 human diffuse large B-cell lymphoma model in female CB-17 SCID mice.
Cell Culture: The OCI-LY10 tumor cells were maintained as a suspension in RPMI1640 medium supplemented with 10% fetal bovine serum and 100 μg/mL penicillin/100 μg/mL streptomycin (study 1) or 1% Antibiotic-Antimycotic (study 2) at 37° C. in an atmosphere of 5% CO2 in air. The tumor cells were routinely subcultured twice weekly by trypsin-EDTA treatment. The cells growing in an exponential growth phase were harvested and counted for tumor inoculation.
Animals: CB-17 SCID, female, 6-8 weeks, weighing approximately 18-22 g. In total of 56 animals (study 1) and 66 animals (study 2) were used in the study.
Tumor Inoculation: Each mouse was inoculated subcutaneously at the right flank with OCI-LY10 tumor cells (10×10^6) in 0.2 mL of PBS with matrigel for tumor development. The treatments were started when the tumor sizes reach 100 mm^3 for the study.
3 days prior to treatment initiation, augment diet gel/supplement to all study animals. Compound are diluted to required dosing volume with 0.9% saline
R-CHOP Dosing Sequence: Rituxan, IP; Doxorubicin, IV 15 min post Rituxan; Vincristine, IV 15 min post Doxorubicin; Cyclophosphamide, IV 15 min post Vincristine; Prednisone, PO 15 min post Cyclophosphamide.
as §1, with “volumes” for “volumes were”, “efficacy,” for “PK/PD,”, “were” for “are”

[3] = 10 mg/kg PO, D1-7 (line noted BENCHMARK)
[4] = 10 mg/kg PO, D1-7 (second line of this schedule)

CC(C)(O)c1cc2nc([C@H]3CC[C@H](CN4CC5(CC(CCNc6cccc7c6C(=O)N(C6CCC(=O)NC6=O)C7=O)C5)C4)CC3)sc2cc1NC(=O)c1cccc(C(F)(F)F)n1 (stereo partly drawn) [Compound A, N-(2-((1r,4r)-4-((6-(2-((2-(2,6-dioxopiperidin-3-yl)-1,3-dioxoisoindolin-4-yl)amino)ethyl)-2-azaspiro[3.3]heptan-2-yl)methyl)cyclohexyl)-5-(2-hydroxypropan-2-yl)benzo[d]thiazol-6-yl)-6-(trifluoromethyl)picolinamide]
PR (partial response), animals ([1]; 3 mg/kg IV, D1, 2, 8, 9): 3
TGI (D14) ([1]; 3 mg/kg IV, D1, 2, 8, 9): 89
PR (partial response), animals ([1]; 3 mg/kg IV, D1, 4, 8, 11): 3
TGI (D14) ([1]; 3 mg/kg IV, D1, 4, 8, 11): 89
PD (progressive disease), animals ([1]; 5 mg/kg PO, D1-4, 15-18): 1
TGI (D14) ([1]; 5 mg/kg PO, D1-4, 15-18): 62
Notes ([1]; 5 mg/kg PO, D1-4, 15-18, note continues 'D14'): All tumors growing after
PR (partial response), animals ([1]; 5 mg/kg PO, D1-7): 2
TGI (D14) ([1]; 5 mg/kg PO, D1-7): 75
Notes ([1]; 5 mg/kg PO, D1-7, note continues 'D14'): All tumors growing after
PR (partial response), animals ([1]; 6 mg/kg IV, D1, 2, 8, 9): 5
TGI (D14) ([1]; 6 mg/kg IV, D1, 2, 8, 9): 94
PR (partial response), animals ([1]; 10 mg/kg PO, D1, 2, 8, 9): 2
TGI (D14) ([1]; 10 mg/kg PO, D1, 2, 8, 9): 88
Notes ([1]; 10 mg/kg PO, D1, 2, 8, 9, note continues 'and continue trending down'): All show tumor regression
PR (partial response), animals ([1]; 10 mg/kg PO, D1, 4, 8, 11): 5
TGI (D14) ([1]; 10 mg/kg PO, D1, 4, 8, 11): 85
Notes: PR on D18, animals ([1]; 10 mg/kg PO, D1, 4, 8, 11, D18): 6
Notes: near PR on D18, animals ([1]; 10 mg/kg PO, D1, 4, 8, 11, D18): 1
PD (progressive disease), animals ([1]; 10 mg/kg PO, D1-3): 1
PR (partial response), animals ([1]; 10 mg/kg PO, D1-3): 5
TGI (D14) ([1]; 10 mg/kg PO, D1-3): 82
Notes ([1]; 10 mg/kg PO, D1-3, note continues 'regression'): All SD show some
PR (partial response), animals ([1]; 10 mg/kg PO, D1-4, 15-18): 7
TGI (D14) ([1]; 10 mg/kg PO, D1-4, 15-18): 87
Notes ([1]; 10 mg/kg PO, D1-4, 15-18, note continues 'significantly from D10'): All tumors shrank
CR (complete response), animals [1, 3]: 1
PR (partial response), animals [1, 3]: 6
TGI (D14) [1, 3]: 96
CR (complete response), animals [1, 4]: 1
PR (partial response), animals [1, 4]: 6
TGI (D14) [1, 4]: 97
PR (partial response), animals ([1]; 12 mg/kg IV, D1, 8): 5
TGI (D14) ([1]; 12 mg/kg IV, D1, 8): 94
Notes ([1]; 12 mg/kg IV, D1, 8,, note continues 'and continue trending down'): All show tumor regression
PR (partial response), animals ([1]; 15 mg/kg PO, D1, 2, 8, 9): 7
TGI (D14) ([1]; 15 mg/kg PO, D1, 2, 8, 9): 91
Notes ([1]; 15 mg/kg PO, D1, 2, 8, 9, note continues 'significantly from D10'): Very Active: Tumors shrank
Notes: tumors growing slightly ([1]; 15 mg/kg PO, D1, 8, 15): 2/5 are growing slightly
Notes: tumors with some regression ([1]; 15 mg/kg PO, D1, 8, 15): 3/5 show some regression;
TGI (D14) ([1]; 15 mg/kg PO, D1, 8, 15): 83
CR (complete response), animals ([1]; 20 mg/kg PO, D1-3): 1
PR (partial response), animals ([1]; 20 mg/kg PO, D1-3): 6
TGI (D14) ([1]; 20 mg/kg PO, D1-3): 96
CR (complete response), animals ([1]; 30 mg/kg PO, D1,2): 4
PR (partial response), animals ([1]; 30 mg/kg PO, D1,2): 3
TGI (D14) ([1]; 30 mg/kg PO, D1,2): 99
Notes: CR by D18, animals ([1]; 30 mg/kg PO, D1,2, D18): 6 CR by D18
CR (complete response), animals ([1]; 30 mg/kg PO, D1, 4, 8): 3
PR (partial response), animals ([1]; 30 mg/kg PO, D1, 4, 8): 4
TGI (D14) ([1]; 30 mg/kg PO, D1, 4, 8): 97
Notes: CR at D18, animals ([1]; 30 mg/kg PO, D1, 4, 8, D18): 5
Notes: PR at D18, animals ([1]; 30 mg/kg PO, D1, 4, 8, D18): 2
Notes ([1]; 30 mg/kg PO, D1, 4, 8, at D18): Tumors continue to regress
CR (complete response), animals ([1]; 30 mg/kg PO, D1, 8, 15): 2
PR (partial response), animals ([1]; 30 mg/kg PO, D1, 8, 15): 5
TGI (D14) ([1]; 30 mg/kg PO, D1, 8, 15): 96
CR (complete response), animals ([1]; 30 mg/kg PO, D1-3): 4
PR (partial response), animals ([1]; 30 mg/kg PO, D1-3): 3
TGI (D14) ([1]; 30 mg/kg PO, D1-3): 99
Notes: CR by D18, animals ([1]; 30 mg/kg PO, D1-3, D18): 7 CR by D18
CR (complete response), animals ([1]; 45 mg/kg PO, D1,2): 4
PR (partial response), animals ([1]; 45 mg/kg PO, D1,2): 3
TGI (D14) ([1]; 45 mg/kg PO, D1,2): 99
Notes: CR by D18, animals ([1]; 45 mg/kg PO, D1,2, D18): 7 CR by D18
CR (complete response), animals ([1]; 60 mg/kg PO, D1): 2
PR (partial response), animals ([1]; 60 mg/kg PO, D1): 5
TGI (D14) ([1]; 60 mg/kg PO, D1): 97
tumor response in OCI-Ly10 xenographs ([1]; 3 mpk x 21 d): regressions
PR (partial response), animals ([1]; 3 mpk, PR ≥50% tumor shrinkage): 4
TGI (28D) ([1]; 3 mpk): 91%
CR (complete response), animals ([1]; 10 mpk, CR >95% tumor shrinkage from starting volume): 5CR
TGI (28D) ([1]; 10 mpk): 99.9%
CR (complete response), animals ([1]; 30 mpk, CR >95% tumor shrinkage from starting volume): 5CR
TGI (28D) ([1]; 30 mpk): 99.9%
regressions compared with Compound B ([1]; OCI-Ly10 tumor xenographs, FIG. 2): more potent regressions than Compound B
IV versus PO activity ([1]; QW and BIW schedules, FIG. 3): equally active
Efficacy, IV versus PO ([1]; comparison of both routes of administration): Efficacy is equivalent between both ROA
tumor response on intermittent schedule ([1]; dosed BIW every 3 weeks, FIG. 3): induces regression
tumor response in OCI-Ly10 xenographs ([1]; higher doses (>10 mpk)): more rapid and complete regressions
Activity (class of schedule) ([1]; mg/kg: 5 PO D1-4,15-18, 5 PO D1-7, 15 PO D1,8,15): Insufficient
Activity (class of schedule) ([1]; mg/kg: 10 PO D1,2,8,9, 3 IV D1,2,8,9, 3 IV D1,4,8,11, 10 PO D1-3, 10 PO D1,4,8,11, 10 PO D1-4,15-18, 15 PO D1,2,8,9, 6 IV D1,2,8,9, 12 IV D1,8): Minimal
Activity (class of schedule) ([1]; mg/kg: 30 PO D1,8,15, 10 PO D1-7, 20 PO D1-3, 60 PO D1, 30 PO D1,4,8, 30 PO D1,2, 30 PO D1-3, 45 PO D1,2): Optimal
combination effect with venetoclax ([2]; mutant MYD88 OCI-Ly10 xenographs, Bliss independent method, FIG. 11): supra-additive
combination effect with rituximab ([2]; mutant MYD88 OCI-Ly10 xenographs, Bliss independent method, FIG. 12 upper graph): supra-additive
combination effect with ibrutinib ([2]; mutant MYD88 OCI-Ly10 xenographs, intermittent schedules, FIG. 10): additive
combination with rituximab in relapsed tumors ([2]; tumors that relapsed following initial R-CHOP treatment, FIG. 12 lower graph): strong tumor regressions
